What all share (assay): DTP human tumour cell line panel, 48 h
The subject of assay [1] is NCI-H226 lung.
Assay [2] deals with SF-268 CNS.
The test system of assay [3] is CCRF-CEM leukemia.
Assay [4] deals with RXF 393 renal.
Assay [5] relates to LOX IMVI melanoma.
For assay [6], the system named is SF-295 CNS.
Assay [7] relates to TK-10 renal.
For assay [8], the system named is HCC-2998 colon.
Assay [9] deals with SNB-19 CNS.

30 compounds from PubChem BioAssay (NCI) can be followed below.

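Exposure lasted 48 hours, with cells grown in 96-well plates and compounds tested at five concentrations. GI50 is the concentration that inhibits growth by half. TGI marks complete inhibition of growth.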

For the compound `CC/C=C1\N=C(c2ccc(Cl)cc2)OC1=O`, the TGI in assay [1], in assay [2], in assay [3], in assay [4], in [5] and in assay [6] was greater than 100 µM in each case. Moreover, the total growth inhibition concentration (TGI) in [7], in assay [8] and in assay [9] was greater than 100 µM each time.

For `OCCCN=NNc1ccc(-c2nc3ccccc3[nH]2)cc1`, the GI50 (as a rule, the concentration giving 50% growth inhibition) in [1] was 26.2 µM; in assay [2], 6.16 µM; in assay [3] it was 0.644 µM; in [4] it was 4.06 µM; in assay [6], 2.87 µM; in [7] it was 31.9 µM. In [9], the GI50 was 22.9 µM. In addition, the TGI – broadly, the concentration at which net growth stops – in assay [1] was 58.9 µM; in assay [2] it was 32.1 µM; in [3], greater than 100 µM; in assay [4], 18 µM; in assay [6], 7.58 µM; in assay [7], 82.5 µM. Moreover, the total growth inhibition concentration (TGI) in assay [9] was 48.8 µM.

Turning to `COc1ccc(/C=C2\CCCCC2=O)cc1`, the concentration for total growth inhibition (TGI) in assay [2], in assay [3], in assay [5], in assay [6] and in assay [7] was greater than 100 µM in each case.

Regarding `CCn1cc(/C=C/C(C)c2cn(CC)c(=O)[nH]c2=O)c(=O)[nH]c1=O` (stereo not drawn), the TGI in [2], in [3], in assay [4], in assay [5], in assay [6] and in [7] was greater than 100 µM each time. The total growth inhibition concentration (TGI) in assay [8] and in assay [9] was greater than 100 µM in each case.

As to `CCC[CH2][Sn]([CH2]CCC)([O]C(=O)c1cc(F)cc(F)c1)[O]C(=O)c1cc(F)cc(F)c1`, the GI50 in assay [1] was 1.34 µM; in assay [2] it was 1.09 µM; in [4] it was 0.349 µM; in assay [5], 0.617 µM; in assay [6], 1.34 µM; in assay [7], 1.3 µM. Moreover, the GI50 in [8] is 0.242 µM; in assay [9], 1.5 µM. Besides, the TGI amounted to 2.65 µM in [1]; 2.34 µM in [2]; 1.33 µM in assay [4]; 1.91 µM in [5]; 2.62 µM in [6]; 2.61 µM in [7]. The values for the total growth inhibition concentration (TGI) in [8] and in [9] were 2 µM and 2.83 µM, respectively.

As for `COC1=CC(O)(CC(N)=O)c2ccccc2C1=O` (stereo not drawn), the TGI in assay [1], in assay [2], in assay [3], in assay [4], in assay [5] and in [6] was greater than 100 µM in each case. The total growth inhibition concentration (TGI) in assay [7], in assay [8] and in assay [9] was greater than 100 µM throughout.

As for `Cc1ccc(-c2nc(SCC(=O)O)n[nH]2)cc1`, the TGI in [1], in [2], in [3], in assay [6], in [7] and in assay [8] was greater than 100 µM each time. Besides, in assay [9], the total growth inhibition concentration (TGI) was greater than 100 µM.

As to `CC(=O)C1CC=C(C)CC1` (stereo not drawn), the total growth inhibition concentration (TGI) in assay [1], in [2], in assay [3], in [4], in [5] and in assay [6] was greater than 100 µM throughout. For the same compound, the TGI in [7], in assay [8] and in [9] was greater than 100 µM throughout.

As for `COc1ccc(C2=NNC(=O)OC2c2ccccc2)cc1` (stereo not drawn), the TGI in [1], in assay [2], in [3], in assay [4], in [5] and in assay [6] was greater than 100 µM in each case. Besides, the TGI in assay [7], in [8] and in [9] was greater than 100 µM each time.

As for `Brc1ccc(-c2nnc(-c3nn(-c4ccccc4)c4nc5ccccc5nc34)o2)cc1`, the TGI in assay [1], in assay [2], in assay [3], in assay [4], in assay [5] and in assay [6] was greater than 100 µM throughout. Besides, the total growth inhibition concentration (TGI) in assay [7], in assay [8] and in [9] was greater than 100 µM in each case.

`CC(C)C1OC(=O)C=C1Sc1ccccc1` (stereo not drawn): the TGI in [1], in [2], in assay [3], in assay [4], in assay [5] and in assay [6] was greater than 100 µM in each case. Moreover, the TGI in [7], in assay [8] and in [9] was greater than 100 µM each time.

Turning to `N#CC(C(=O)/C(=N\Nc1nc(=S)[nH]n1N)C(C#N)c1ccc(Cl)cc1)c1ccc(Cl)cc1` (stereo not drawn), the TGI in assay [1], in assay [2], in [4], in assay [5], in assay [6] and in [7] was greater than 100 µM in each case. The TGI in [8] and in [9] was greater than 100 µM in each case.

With `COc1ccc(/C(=N/NC(=O)NN)C(c2ccc(OC)cc2)C2(O)CNc3c(Cl)cc(Cl)cc32)cc1` (stereo not drawn), the concentration for total growth inhibition (TGI) in assay [1], in assay [2], in assay [3], in assay [4], in [5] and in assay [6] was greater than 100 µM in each case. In addition, the TGI in [7], in assay [8] and in assay [9] was greater than 100 µM in each case.

With `CC(C)(C)NN=C1C(C)(C)C(=NNC(C)(C)C)C1(C)C`, the TGI in assay [1], in assay [2], in assay [4], in assay [5], in assay [6] and in assay [7] was greater than 100 µM throughout. The total growth inhibition concentration (TGI) in assay [8] and in assay [9] was greater than 100 µM in each case.

Take `Cc1ccc(NC(=O)c2cccc([N+](=O)[O-])c2O)c([N+](=O)[O-])c1`: the concentration for total growth inhibition (TGI) is 8.4 µM in assay [1]; 54.9 µM in assay [2]; greater than 100 µM in [3]; 23.6 µM in [4]; 25.1 µM in assay [5]; 32.8 µM in [6]. Besides, the total growth inhibition concentration (TGI) worked out at 29.5 µM in assay [8] and 82.9 µM in [9].

`Cc1cc(N(CCC#N)S(C)(=O)=O)ccc1C=O`: the TGI in assay [1], in [2], in [3], in assay [4], in assay [5] and in assay [6] was greater than 100 µM throughout. The TGI in assay [8] and in [9] was greater than 100 µM in each case.

`O=C(CC1(O)C(=O)Nc2ccccc21)c1ccccc1Cl` (stereo not drawn): the TGI in assay [1], in [2], in assay [4], in assay [5], in assay [6] and in assay [7] was greater than 100 µM each time. Also, the total growth inhibition concentration (TGI) in assay [9] is greater than 100 µM.

`CC1C[C@H](OC(N)=O)C(C)CC1=O` (stereo partly drawn): the concentration for total growth inhibition (TGI) in assay [2], in [3], in assay [4], in assay [5], in [6] and in [7] was greater than 100 µM in each case. Also, the TGI in assay [8] and in [9] was greater than 100 µM in each case.

Consider `CN(C)c1ccc(N=Cc2c([O-])ccc3ccccc23)cc1.[C-]#[O+].[C-]#[O+].[Ir]`, for which the GI50 in assay [1] was 15.2 µM; in [2], 22.5 µM; in [3], 4.76 µM; in [5], 15.4 µM; in assay [6] it was 20 µM; in [7] it was 22.5 µM. For the same compound, the GI50 was 18.8 µM in assay [8] and 24.8 µM in assay [9]. Further, the TGI in [1] is 33.1 µM; in assay [2] it was 50.6 µM; in assay [3] it was greater than 100 µM; in assay [5], 30.4 µM; in [6], 55 µM; in assay [7] it was 53.3 µM. Besides, the values for the TGI in [8] and in assay [9] were 35.3 µM and 64.3 µM, respectively.

On to `CCCN(CCCC(NC(C)=O)C(=O)NCc1ccccc1)C(=O)NC` (stereo not drawn), for which the total growth inhibition concentration (TGI) in assay [1], in assay [2], in [3], in assay [4], in [5] and in [6] was greater than 100 µM each time. Moreover, the TGI in assay [7], in [8] and in [9] was greater than 100 µM throughout.

Turning to `CSc1cnn(CCC#N)c(=O)n1`, the total growth inhibition concentration (TGI) in assay [1], in assay [2], in assay [3], in assay [4], in assay [5] and in assay [6] was greater than 100 µM each time. In addition, the TGI in assay [7], in assay [8] and in [9] was greater than 100 µM each time.

Take `COc1ccc2oc3c4c2c1CCC4CCC3=O` (stereo not drawn): the TGI in assay [2], in assay [3], in assay [4], in assay [5], in [6] and in assay [7] was greater than 100 µM each time. In addition, the total growth inhibition concentration (TGI) in assay [8] and in [9] was greater than 100 µM each time.

With `N/N=C1\C(=O)N(C2CCCCC2)C(=O)C1C(=O)NC1CCCCC1` (stereo not drawn), the TGI in [1], in assay [2], in assay [3], in [5], in assay [6] and in assay [8] was greater than 100 µM in each case. In [9], the TGI is greater than 100 µM.

Take `CC1=CC(=O)CCC2(C)C1CC[C@@H]2OC=O` (stereo partly drawn): the concentration for total growth inhibition (TGI) in assay [1], in [2], in [3], in assay [4], in assay [5] and in [6] was greater than 100 µM in each case. In addition, the TGI in [7], in [8] and in assay [9] was greater than 100 µM in each case.

On to `Cc1cc2c(=O)n(-c3ccc(F)cc3)c(C)nc2c(C(=O)O)c1C`, for which the TGI in assay [1], in assay [2], in assay [3], in assay [4], in assay [5] and in [6] was greater than 100 µM each time. The TGI in [7] and in [8] was greater than 100 µM throughout.

On to `CSC(C1c2ccccc2N(C)C2=NC(=O)N(C)C(=O)C21Cl)S(=O)(=O)c1ccc(C)cc1` (stereo not drawn), for which the TGI was greater than 100 µM in assay [1]; greater than 100 µM in assay [2]; 28.3 µM in [3]; greater than 100 µM in assay [5]; greater than 100 µM in assay [6]; greater than 100 µM in [7]. The TGI in assay [8] and in [9] was greater than 100 µM throughout.

On to `Cn1c2c(c3ccccc31)C1CCCCC1C1C(=O)NC(=O)C21` (stereo not drawn), for which the TGI in assay [1], in assay [2], in assay [3], in [4], in assay [5] and in assay [6] was greater than 100 µM each time. Further, the TGI in assay [7], in [8] and in [9] was greater than 100 µM each time.

Take `CCOC(=O)C(=O)Nc1c(F)cc(F)cc1Br`: the TGI in [1], in [2], in assay [3], in assay [4], in assay [5] and in assay [6] was greater than 100 µM in each case. Further, the TGI in assay [7], in assay [8] and in assay [9] was greater than 100 µM each time.

Regarding `CCOC(=O)N1CCc2cc(OC)c(OC)c3c2C1CC3=O` (stereo not drawn), the TGI in assay [2], in [3], in [4], in assay [5], in [6] and in [7] was greater than 100 µM each time. Also, the total growth inhibition concentration (TGI) in assay [8] and in assay [9] was greater than 100 µM in each case.

`COc1ccc(C(O)/C(=N\NC(N)=S)c2nc3ccc([N+](=O)[O-])cc3[nH]c2=O)cc1OC` (stereo not drawn): the TGI in assay [1], in assay [2], in assay [3], in [4], in [5] and in assay [6] was greater than 100 µM throughout. Moreover, the total growth inhibition concentration (TGI) in [7] and in [8] was greater than 100 µM each time.
